In this assay the target is T1, CCR2 (Homo sapiens, UniProt P41597).
T1 construct: host or cells: THP-1 (human monocytic cell line)
Kind of assay: MCP-1 Receptor Binding Assay in THP-1 Cells. The conditions noted are these: read-out: MCP1B_v3 IC50. The method, boiled down:
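Human monocytic THP-1 cells incubated 2 h at 30 °C with 0.5 nM 125I-MCP-1 and varying concentrations of test compound or unlabelled MCP-1. Cells filter-harvested and counted by scintillation; blank subtracted, compared with vehicle; nonspecific binding with 1 μM cold MCP-1.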

T1 sequence (P41597 whole entry): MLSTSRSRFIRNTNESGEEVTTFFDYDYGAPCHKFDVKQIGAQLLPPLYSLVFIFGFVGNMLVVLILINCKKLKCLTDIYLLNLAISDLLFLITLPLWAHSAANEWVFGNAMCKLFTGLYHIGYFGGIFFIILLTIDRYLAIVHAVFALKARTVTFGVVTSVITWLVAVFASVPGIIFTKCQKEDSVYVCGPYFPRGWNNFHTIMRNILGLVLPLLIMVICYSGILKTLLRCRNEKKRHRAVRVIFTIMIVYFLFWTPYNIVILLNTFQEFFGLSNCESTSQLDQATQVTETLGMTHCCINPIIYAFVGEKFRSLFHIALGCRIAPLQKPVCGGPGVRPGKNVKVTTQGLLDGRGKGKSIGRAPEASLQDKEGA

A word on the IC50: it is the concentration at which inhibition is half-maximal. Turning to `COC1COCCC1N[C@@H]1C[C@H]2CN(C(=O)CCN3CCCCC3)C[C@@]2(C(=O)N2CCc3ncc(C(F)(F)F)cc3C2)C1` (relative stereo) [Example 79, 1-((3aR,5R,6aR)-5-(((3S*,4S*)-3-Methoxytetrahydro-2H-pyran-4-yl)amino)-3a-(3-(trifluoromethyl)-5,6,7,8-tetrahydro-1,6-naphthyridine-6-carbonyl)hexahydrocyclopenta-[c]pyrrol-2(1H)-yl)-3-(piperidin-1-yl)propan-1-one], the IC50 was 500 nM.

For `COC1COCCC1N[C@@H]1C[C@H]2CN(C(=O)OCCN3CCOCC3)C[C@@]2(C(=O)N2CCc3ncc(C(F)(F)F)cc3C2)C1` (relative stereo) [Example 39, (3aR,5R,6aR)-2-Morpholinoethyl 5-(((3S*,4S*)-3-methoxytetrahydro-2H-pyran-4-yl)amino)-3a-(3-(trifluoromethyl)-5,6,7,8-tetrahydro-1,6-naphthyridine-6-carbonyl)hexahydrocyclopenta[c]pyrrole-2(1H)-carboxylate], the IC50 stood at 10 nM.

In the case of `CNC(=S)N1C[C@@H]2C[C@@H](N(C(=S)NC)C3CCOCC3OC)C[C@]2(C(=O)N2CCc3ncc(C(F)(F)F)cc3C2)C1` (relative stereo) [Example 28, (3aR,5R,6aR)-5-(1-((3S*,4S*)-3-Methoxytetrahydro-2H-pyran-4-yl)-3-methylthioureido)-N-methyl-3a-(3-(trifluoromethyl)-5,6,7,8-tetrahydro-1,6-naphthyridine-6-carbonyl)hexahydrocyclopenta[c]pyrrole-2(1H)-carbothioamide], the IC50 amounted to 250 nM.

`CNC(=O)N1C[C@@H]2C[C@@H](NC3CCOCC3OC)C[C@]2(C(=O)N2CCc3ncc(C(F)(F)F)cc3C2)C1` (relative stereo) [Example 13, (3aR,5R,6aR)-5-(((3S*,4S*)-(3-Methoxytetrahydro-2H-pyran-4-yl)amino)-N-methyl-3a-(3-(trifluoromethyl)-5,6,7,8-tetrahydro-1,6-naphthyridine-6-carbonyl)hexahydrocyclopenta-[c]pyrrole-2(1H)-carboxamide]: the IC50 was determined as 80 nM.

As to `COc1cccc(COC(=O)N2C[C@@H]3C[C@@H](NC4CCOCC4OC)C[C@]3(C(=O)N3CCc4ncc(C(F)(F)F)cc4C3)C2)c1` (relative stereo) [Example 60, (3aR,5R,6aR)-3-Methoxybenzyl 5-(((3S*,4S*)-3-methoxytetrahydro-2H-pyran-4-yl)amino)-3a-(3-(trifluoromethyl)-5,6,7,8-tetrahydro-1,6-naphthyridine-6-carbonyl)hexahydrocyclopenta-[c]pyrrole-2(1H)-carboxylate], the IC50 came out at 100 nM.

In the case of `COC1COCCC1N[C@@H]1C[C@H]2CNC(=O)[C@@]2(C(=O)N2CCc3ncc(C(F)(F)F)cc3C2)C1` (relative stereo) [Example 119, (3aR,5R,6aR)-5-(((3S*,4S*)-3-Methoxytetrahydro-2H-pyran-4-yl)amino)-6a-(3-(trifluoromethyl)-5,6,7,8-tetrahydro-1,6-naphthyridine-6-carbonyl)hexahydrocyclopenta-[c]pyrrol-1(2H)-one], the half-maximal inhibitory concentration (IC50) was 12000 nM.

Turning to `CNC(=S)N1C[C@@H]2C[C@@H](NC3CCOCC3OC)C[C@]2(C(=O)N2CCc3ncc(C(F)(F)F)cc3C2)C1` (relative stereo) [Example 27, (3aR,5R,6aR)-5-(((3S*,4S*)-3-Methoxytetrahydro-2H-pyran-4-yl)amino)-N-methyl-3a-(3-(trifluoromethyl)-5,6,7,8-tetrahydro-1,6-naphthyridine-6-carbonyl)hexahydrocyclopenta[c]pyrrole-2(1H)-carbothioamide], the 50% inhibitory concentration (IC50) came to 30 nM.

Take `COC1COCCC1N[C@@H]1C[C@H]2CN(C(=O)c3nccs3)C[C@@]2(C(=O)N2CCc3ncc(C(F)(F)F)cc3C2)C1` (relative stereo) [Example 81, ((3aR,5R,6aR)-5-(((3S*,4S*)-3-Methoxytetrahydro-2H-pyran-4-yl)amino)-2-(thiazole-2-carbonyl)octahydrocyclopenta[c]pyrrol-3a-yl)(3-(trifluoromethyl)-7,8-dihydro-1,6-naphthyridin-6(5H)-yl)methanone]: the concentration for half-maximal inhibition (IC50) came to 40 nM.

Take `COC1COCCC1N[C@@H]1C[C@H]2CN(C(=O)c3ncco3)C[C@@]2(C(=O)N2CCc3ncc(C(F)(F)F)cc3C2)C1` (relative stereo) [Example 70, ((3aR,5R,6aR)-5-(((3S*,4S*)-3-Methoxytetrahydro-2H-pyran-4-yl)amino)-2-(oxazole-2-carbonyl)octahydrocyclopenta[c]pyrrol-3a-yl)(3-(trifluoromethyl)-7,8-dihydro-1,6-naphthyridin-6(5H)-yl)methanone]: the IC50 was determined as 80 nM.

In the case of `COC1COCCC1N[C@@H]1C[C@H]2CN(C3=NCCO3)C[C@@]2(C(=O)N2CCc3ncc(C(F)(F)F)cc3C2)C1` (relative stereo) [Example 113, ((3aR,5R,6aR)-2-(4,5-Dihydrooxazol-2-yl)-5-(((3S*,4S*)-3-methoxytetrahydro-2H-pyran-4-yl)amino)octahydrocyclopenta[c]pyrrol-3a-yl)(3-(trifluoromethyl)-7,8-dihydro-1,6-naphthyridin-6(5H)-yl)methanone], the IC50 was found to be 100 nM.

As to `COC1COCCC1N[C@@H]1C[C@H]2CN(C(=O)c3ccccc3)C[C@@]2(C(=O)N2CCc3ncc(C(F)(F)F)cc3C2)C1` (relative stereo) [Example 69, ((3aR,5R,6aR)-2-Benzoyl-5-(((3S*,4S*)-3-methoxytetrahydro-2H-pyran-4-yl)amino)-octahydrocyclopenta[c]pyrrol-3a-yl)(3-(trifluoromethyl)-7,8-dihydro-1,6-naphthyridin-6(5H)-yl)methanone], the half-maximal inhibitory concentration (IC50) is 150 nM.

Take `COC1COCCC1N[C@@H]1C[C@H]2CN(C(=O)OCCNC(C)=O)C[C@@]2(C(=O)N2CCc3ncc(C(F)(F)F)cc3C2)C1` (relative stereo) [Example 63, (3aR,5R,6aR)-2-Acetamidoethyl 5-(((3S*,4S*)-3-methoxytetrahydro-2H-pyran-4-yl)amino)-3a-(3-(trifluoromethyl)-5,6,7,8-tetrahydro-1,6-naphthyridine-6-carbonyl)hexahydrocyclopenta[c]pyrrole-2(1H)-carboxylate]: the IC50 was found to be 50 nM.

For the molecule `COC1COCCC1N[C@@H]1C[C@H]2CN(C(=O)n3ccnc3)C[C@@]2(C(=O)N2CCc3ncc(C(F)(F)F)cc3C2)C1` (relative stereo) [Example 23, ((3aR,5R,6aR)-2-(1H-Imidazole-1-carbonyl)-5-(((3S*,4S*)-3-methoxytetrahydro-2H-pyran-4-yl)amino)octahydrocyclopenta[c]pyrrol-3a-yl)(3-(trifluoromethyl)-7,8-dihydro-1,6-naphthyridin-6(5H)-yl)methanone], the IC50 stood at 280 nM.

In the case of `COC1COCCC1N[C@@H]1C[C@H]2CN(C(=O)OCCC(C)(C)O)C[C@@]2(C(=O)N2CCc3ccc(OC(F)(F)F)cc3C2)C1` (relative stereo) [Example 50, (3aR,5R,6aR)-3-Hydroxy-3-methylbutyl 5-(((3S*,4S*)-3-methoxytetrahydro-2H-pyran-4-yl)amino)-3a-(7-(trifluoromethoxy)-1,2,3,4-tetrahydroisoquinoline-2-carbonyl)hexahydrocyclopenta[c]pyrrole-2(1H)-carboxylate], the IC50 is 30 nM.

For the molecule `COC1COCCC1N[C@@H]1C[C@H]2CN(C(C)C)C[C@@]2(C(=O)N2CCc3ncc(C(F)(F)F)cc3C2)C1` (relative stereo) [Example 96, ((3aR,5R,6aR)-2-Isopropyl-5-(((3S*,4S*)-3-methoxytetrahydro-2H-pyran-4-yl)amino)octahydrocyclopenta[c]pyrrol-3a-yl)(3-(trifluoromethyl)-7,8-dihydro-1,6-naphthyridin-6(5H)-yl)methanone], the concentration for half-maximal inhibition (IC50) came out at 1220 nM.

On to `CO[C@H]1COCC[C@H]1N[C@@H]1C[C@H]2CN(C(N)=O)C[C@@]2(C(=O)N2CCc3ncc(C(F)(F)F)cc3C2)C1` [Example 4], for which the concentration for half-maximal inhibition (IC50) was 40 nM.

Regarding `COC1COCCC1N[C@@H]1C[C@H]2CN(C(=O)OCc3ccc(C#N)cc3)C[C@@]2(C(=O)N2CCc3ncc(C(F)(F)F)cc3C2)C1` (relative stereo) [Example 58, (3aR,5R,6aR)-4-Cyanobenzyl 5-(((3S*,4S*)-3-methoxytetrahydro-2H-pyran-4-yl)amino)-3a-(3-(trifluoromethyl)-5,6,7,8-tetrahydro-1,6-naphthyridine-6-carbonyl)hexahydrocyclopenta-[c]pyrrole-2(1H)-carboxylate], the 50% inhibitory concentration (IC50) is 200 nM.

As to `COC1COCCC1N[C@@H]1C[C@H]2CN(CCc3ccccc3)C[C@@]2(C(=O)N2CCc3ncc(C(F)(F)F)cc3C2)C1` (relative stereo) [Example 102, ((3aR,5R,6aR)-5-(((3S*,4S*)-3-Methoxytetrahydro-2H-pyran-4-yl)amino)-2-phenethyloctahydrocyclopenta[c]pyrrol-3a-yl)(3-(trifluoromethyl)-7,8-dihydro-1,6-naphthyridin-6(5H)-yl)methanone], the half-inhibitory concentration (IC50) is 1000 nM.

For the molecule `COC1COCCC1N[C@@H]1C[C@H]2CN(S(N)(=O)=O)C[C@@]2(C(=O)N2CCc3ncc(C(F)(F)F)cc3C2)C1` (relative stereo) [Example 32, (3aR,5R,6aR)-5-(((3S*,4S*)-3-Methoxytetrahydro-2H-pyran-4-yl)amino)-3a-(3-(trifluoromethyl)-5,6,7,8-tetrahydro-1,6-naphthyridine-6-carbonyl)hexahydrocyclopenta-[c]pyrrole-2(1H)-sulfonamide], the IC50 turned out to be 130 nM.

Take `CCCOC(=O)N1C[C@@H]2C[C@@H](NC3CCOCC3OC)C[C@]2(C(=O)N2CCc3ncc(C(F)(F)F)cc3C2)C1` (relative stereo) [Example 35, (3aR,5R,6aR)-Propyl 5-(((3S*,4S*)-3-methoxytetrahydro-2H-pyran-4-yl)amino)-3a-(3-(trifluoromethyl)-5,6,7,8-tetrahydro-1,6-naphthyridine-6-carbonyl)hexahydro-cyclopenta[c]pyrrole-2(1H)-carboxylate]: the IC50 worked out at 60 nM.

Values taken from patent US9024017B2, “Octahydro-cyclopentapyrrolyl antagonists of CCR2” (Janssen Pharmaceutica NV, priority 2012, dated 2015).
